In US10494363B2, “Non-steroidal glucocorticoid receptor modulators for local drug delivery” (LEO PHARMA A/S, priority 2015, dated 2019) one finds EC50 and IC50 data, which are given here for 18 compounds.

Some results are limits rather than exact numbers.

In assay [1] the test system is TNF alpha release from human PBMCs. Kind of assay: Inhibition of TNF alpha release from human PBMCs. Type of assay: cell-based. To be noted: PBMC, LPS 1 μg/ml, 18 hours, AlphaLISA. The protocol:
PBMC were isolated from fresh buffy coats by density centrifugation using lymphoprep (Medinor AB, cat no 1019818) tubes. Isolated PBMCs were washed in assay medium (RPMI1640 with 25 mM HEPES, 1% pen/strep, 200 mM L glutamine and 10% Foetal calf serum). Surplus PBMCs were frozen in medium containing extra 10% foetal calf serum and 5% DMSO. On the assay day, fresh cells or cryopreserved cells after thawing were washed in serum free medium (RPMI1640 with 25 mM HEPES, 1% pen/strep, 200 mM L glutamine and 0.5% human serum albumin) and counted, in order to determine the fraction of living cells (generally >95%).
Test compounds were diluted in DMSO over seven orders of magnitude, further diluted in serum-free medium and distributed into wells of 384 well tissue culture plates. LPS was added to a final concentration of 1 μg/ml to the cells. Immediately thereafter titrated test compounds were added and incubated for 18 hours at 37° C.
The level of TNF-a in the culture supernatant was quantitated by AlphaLISA (Perkin Elmer). 2-(3,5-dichloro-4-pyridinyl)-1-(7-methoxyspiro[1,3-benzodioxole-2,1′-cyclopentan]-4-yl)-ethanone (CAS 185406-34-2) at 100×IC50 was used to define the assay window.
Data were processed by sigmoidal curve fitting. EC50 and Emax were determined from the curve fits.
In general terms: In Alpha technology, singlet oxygen from a donor bead excites a nearby acceptor bead.

Assay [2] deals with T1, glucocorticoid receptor (GR), recombinant full-length receptor protein (Homo sapiens, UniProt P04150).
T1 construct: 4 nM recombinant, full-length receptor protein was incubated with increasing concentrations of GR ligand; purchased Life Technologies A-15897
T1 sequence (P04150 1-777): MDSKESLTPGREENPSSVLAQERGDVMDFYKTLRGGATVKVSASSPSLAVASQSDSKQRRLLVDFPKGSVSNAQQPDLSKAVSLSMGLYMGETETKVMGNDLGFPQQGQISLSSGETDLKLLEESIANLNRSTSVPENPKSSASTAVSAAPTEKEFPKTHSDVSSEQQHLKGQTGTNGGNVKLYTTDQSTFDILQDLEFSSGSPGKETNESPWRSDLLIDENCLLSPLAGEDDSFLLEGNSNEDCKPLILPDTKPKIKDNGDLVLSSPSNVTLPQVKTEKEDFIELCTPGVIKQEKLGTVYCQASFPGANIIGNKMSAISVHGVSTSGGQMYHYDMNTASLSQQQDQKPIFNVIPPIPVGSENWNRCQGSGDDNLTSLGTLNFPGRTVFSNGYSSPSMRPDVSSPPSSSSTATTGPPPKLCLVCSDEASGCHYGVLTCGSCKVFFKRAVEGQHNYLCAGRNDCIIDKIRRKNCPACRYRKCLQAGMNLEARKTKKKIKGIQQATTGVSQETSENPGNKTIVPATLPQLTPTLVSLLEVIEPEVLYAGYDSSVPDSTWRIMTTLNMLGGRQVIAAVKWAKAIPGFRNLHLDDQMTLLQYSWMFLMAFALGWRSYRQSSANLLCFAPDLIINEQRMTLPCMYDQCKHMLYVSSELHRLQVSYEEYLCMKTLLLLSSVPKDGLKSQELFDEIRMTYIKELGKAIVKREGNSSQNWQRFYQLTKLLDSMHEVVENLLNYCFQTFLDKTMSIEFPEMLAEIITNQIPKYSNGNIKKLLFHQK
Kind of assay: Glucocorticoid receptor binding assay (fluorescence polarization kit). As to conditions: 4 nM receptor, 2.5 nM Fluormone GS1 tracer, 2h room temperature, read-out: GR binding ABS IC50. The procedure: Test compounds were diluted in DMSO over seven orders of magnitude, further diluted in assay buffer and distributed into 384-well plates. The sensitivity limit of this assay was 2-4 nM.
Data were processed by sigmoidal curve fitting.
Absolute (Abs) IC50 and Emax were determined from the curve fits.

Turning to `Cc1ccc([C@H](Oc2ccc(C(=O)N[C@H]3CCCN(C(=O)[C@H]4COC(=O)C4)C3)nc2)[C@H](C)NC(=O)C(F)(F)F)cc1` [Compound 81, N-[(3S)-1-[(3R)-5-oxotetrahydrofuran-3-carbonyl]-3-piperidyl]-5-[(1S,2S)-1-(p-tolyl)-2-[(2,2,2-trifluoroacetyl)amino]propoxy]pyridine-2-carboxamide], in assay [1], the EC50 (commonly the concentration needed to bring the measured effect to its halfway point) was below 100 nM.

Take `C[C@H](NC(=O)C(F)(F)F)[C@H](Oc1ccc(C(=O)N[C@H]2CCCN(C(=O)[C@H]3COC(=O)C3)C2)nc1)c1ccc(-c2ccccc2)cc1` [Compound 68, N-[(3S)-1-[(3R)-5-oxotetrahydrofuran-3-carbonyl]-3-piperidyl]-5-[(1R,2S)-1-(4-phenylphenyl)-2-[(2,2,2-trifluoroacetyl)amino]propoxy]pyridine-2-carboxamide]: in assay [2], the half-inhibitory concentration (IC50) – broadly, the concentration needed to halve the response being measured – is below 100 nM. The EC50 in assay [1] was below 100 nM.

`Cc1ccc([C@@H](Oc2ccc(C(=O)N[C@@H]3CCCN(C(=O)[C@H]4CCC(=O)O4)C3)nc2)[C@H](C)NC(=O)C(F)(F)F)cc1` [Compound 62, N-[(3R)-1-[(2R)-5-oxotetrahydrofuran-2-carbonyl]-3-piperidyl]-5-[(1R,2S)-1-(p-tolyl)-2-[(2,2,2-trifluoroacetyl)amino]propoxy]pyridine-2-carboxamide] displayed a 50% effective concentration (EC50) in assay [1] below 100 nM.

In turn, `Cc1ccc([C@H](Oc2ccc(C(=O)N[C@H]3CCCN(C(=O)[C@@H]4COC(=O)C4)C3)nc2)[C@H](C)NC(=O)C(F)(F)F)cc1` [Compound 80, N-[(3S)-1-[(3S)-5-oxotetrahydrofuran-3-carbonyl]-3-piperidyl]-5-[(1S,2S)-1-(p-tolyl)-2-[(2,2,2-trifluoroacetyl)amino]propoxy]pyridine-2-carboxamide] returned an EC50 in assay [1] below 100 nM.

Turning to `Cc1ccc([C@@H](Oc2ccc(C(=O)N[C@@H]3CCN(C(=O)[C@H]4COC(=O)C4)C3)nc2)[C@H](C)NC(=O)C(F)(F)F)cc1` [Compound 65, N-[(3R)-1-[(3R)-5-oxotetrahydrofuran-3-carbonyl]pyrrolidin-3-yl]-5-[(1R,2S)-1-(p-tolyl)-2-[(2,2,2-trifluoroacetyl)amino]propoxy]pyridine-2-carboxamide], the 50% inhibitory concentration (IC50) in assay [2] is 100 to 300 nM. The same compound came in with a 50% effective concentration (EC50) in assay [1] below 100 nM.

In the case of `Cc1ccc([C@@H](Oc2ccc(C(=O)N[C@H]3CCCN(C(=O)[C@@H]4COC(=O)C4)C3)nc2)[C@H](C)NC(=O)C(F)(F)F)cc1` [Compound 63, N-[(3S)-1-[(3S)-5-oxotetrahydrofuran-3-carbonyl]-3-piperidyl]-5-[(1R,2S)-1-(p-tolyl)-2-[(2,2,2-trifluoroacetyl)amino]propoxy]pyridine-2-carboxamide], the EC50 in assay [1] is below 100 nM.

For the compound `C[C@H](NC(=O)[C@@H]1CCCO1)[C@H](Oc1ccc(C(=O)O[C@H]2CCCN(C(=O)[C@H]3COC(=O)C3)C2)cc1)c1ccc(C2CC2)cc1` [Compound 78, [(3S)-1-[(3R)-5-oxotetrahydrofuran-3-carbonyl]-3-piperidyl] 4-[(1R,2S)-1-(4-cyclopropylphenyl)-2-[[(2S)-tetra hydrofuran-2-carbonyl]amino]propoxy]benzoate], in assay [2], the IC50 is below 100 nM. The 50% effective concentration (EC50) in assay [1] is below 100 nM.

Regarding `C[C@H](NC(=O)c1cncs1)[C@H](Oc1ccc(C(=O)O[C@H]2CCCN(C(=O)[C@H]3COC(=O)C3)C2)cc1)c1ccc(C2CC2)cc1` [Compound 27, [(3S)-1-[(3R)-5-oxotetrahydrofuran-3-carbonyl]-3-piperidyl] 4-[(1R,2S)-1-(4-cyclopropylphenyl)-2-(thiazole-5-carbonylamino)propoxy]benzoate], the 50% inhibitory concentration (IC50) in assay [2] is below 100 nM. Moreover, the EC50 in assay [1] was below 100 nM.

In the case of `Cc1ccc([C@@H](Oc2ccc(C(=O)N[C@H]3CCCN(C(=O)O[C@H]4COC(=O)C4)C3)nc2)[C@H](C)NC(=O)C(F)(F)F)cc1` [Compound 76, [(34)-5-oxotetrahydrofuran-3-yl] (3S)-3-[[5-[(1R,2S)-1-(p-tolyl)-2-[(2,2,2-trifluoroacetyl)amino]propoxy]pyridine-2-carbonyl]amino]piperidine-1-carboxylate], the IC50 in assay [2] is below 100 nM. The compound also gave an EC50 in assay [1] of 100 to 300 nM.

Turning to `C[C@H](NC(=O)[C@H]1CCCO1)[C@H](Oc1ccc(C(=O)O[C@H]2CCCN(C(=O)[C@@H]3COC(=O)C3)C2)cc1)c1ccc(C2CC2)cc1` [Compound 77, [(3S)-1-[(3S)-5-oxotetrahydrofuran-3-carbonyl]-3-piperidyl] 4-[(1R,2S)-1-(4-cyclopropylphenyl)-2-[[(2R)-tetrahydrofuran-2-carbonyl]amino]propoxy]benzoate], the half-inhibitory concentration (IC50) in assay [2] is below 100 nM. Besides, in assay [1], the EC50 was below 100 nM.

The compound `Cc1ccc([C@@H](Oc2ccc(C(=O)N[C@@H]3CCCN(C(=O)[C@@H]4CCC(=O)O4)C3)nc2)[C@H](C)NC(=O)C(F)(F)F)cc1` [Compound 61, N-[(3R)-1-[(2S)-5-oxotetrahydrofuran-2-carbonyl]-3-piperidyl]-5-[(1R,2S)-1-(p-tolyl)-2-[(2,2,2-trifluoroacetyl)amino]propoxy]pyridine-2-carboxamide] returned a concentration giving a half-maximal response (EC50) in assay [1] of 100 to 300 nM.

`Cc1ccc([C@@H](Oc2ccc(C(=O)N[C@@H]3CCCN(C(=O)[C@@H]4COC(=O)C4)C3)nc2)[C@H](C)NC(=O)C(F)(F)F)cc1` [Compound 60, N-[(3R)-1-[(3S)-5-oxotetrahydrofuran-3-carbonyl]-3-piperidyl]-5-[(1R,2S)-1-(p-tolyl)-2-[(2,2,2-trifluoroacetyl)amino]propoxy]pyridine-2-carboxamide] yielded an EC50 in assay [1] below 100 nM.

On to `Cc1ccc([C@@H](Oc2ccc(C(=O)N[C@H]3CCCN(C(=O)N[C@H]4COC(=O)C4)C3)nc2)[C@H](C)NC(=O)C(F)(F)F)cc1` [Compound 72, N-[(3S)-1-[[(3R)-5-oxotetrahydrofuran-3-yl]carbamoyl]-3-piperidyl]-5-[(1R,2S)-1-(p-tolyl)-2-[(2,2,2-trifluoroacetyl)amino]propoxy]pyridine-2-carboxamide], for which the 50% inhibitory concentration (IC50) in assay [2] is below 100 nM. This compound also showed a concentration for a half-maximal effect (EC50) in assay [1] of 100 to 300 nM.

Regarding `C[C@H](NC(=O)C(F)(F)F)[C@H](Oc1ccc(C(=O)N[C@H]2CCCN(C(=O)[C@H]3COC(=O)C3)C2)nc1)c1ccc(Br)cc1` [Compound 67, 5-[(1R,2S)-1-(4-bromophenyl)-2-[(2,2,2-trifluoroacetyl)amino]propoxy]-N-[(3S)-1-[(3R)-5-oxotetrahydrofuran-3-carbonyl]-3-piperidyl]pyridine-2-carboxamide], the 50% inhibitory concentration (IC50) in assay [2] was below 100 nM. For the same compound, the concentration for a half-maximal effect (EC50) in assay [1] was below 100 nM.

Compound `C[C@@H]1C[C@H]2[C@@H]3CCC4=CC(=O)C=C[C@]4(C)[C@@]3(F)[C@@H](O)C[C@]2(C)[C@@]1(O)C(=O)CO` [Dexamethasone, reference compound] had an EC50 in assay [1] below 100 nM.

In assay [1], `Cc1ccc([C@@H](Oc2ccc(C(=O)O[C@H]3CCCN(C(=O)[C@H]4COC(=O)C4)C3)cc2)[C@H](C)NC(=O)C(F)(F)F)cc1` [Compound 70, [(3S)-1-[(3R)-5-oxotetrahydrofuran-3-carbonyl]-3-piperidyl] 4-[(1R,2S)-1-(p-tolyl)-2-[(2,2,2-trifluoroacetyl)amino]propoxy]benzoate] displayed an EC50 below 100 nM.

`Cc1ccc([C@@H](Oc2ccc(C(=O)N[C@H]3CCCN(C(=O)[C@@H]4CCC(=O)O4)C3)nc2)[C@H](C)NC(=O)C(F)(F)F)cc1` [Compound 64, N-[(3S)-1-[(2S)-5-oxotetrahydrofuran-2-carbonyl]-3-piperidyl]-5-[(1R,2S)-1-(p-tolyl)-2-[(2,2,2-trifluoroacetyl)amino]propoxy]pyridine-2-carboxamide] yielded an EC50 in assay [1] below 100 nM.

For the compound `Cc1ccc([C@@H](Oc2ccc(C(=O)N[C@H]3CCCN(C(=O)O[C@H]4CCOC4=O)C3)nc2)[C@H](C)NC(=O)C(F)(F)F)cc1` [Compound 73, [(3S)-2-oxotetrahydrofuran-3-yl] (3S)-3-[[5-[(1R,2S)-1-(p-tolyl)-2-[(2,2,2-trifluoroacetyl)amino]propoxy]pyridine-2-carbonyl]amino]piperidine-1-carboxylate], the half-maximal inhibitory concentration (IC50) in assay [2] was below 100 nM.
